Results from patent publication US20140303092A1 (CHIMERIX, INC., priority 2011, published 2014).

Experiment: Study HDP-CDV-201: safety and tolerability (adverse events, laboratory abnormalities, discontinuations)
Assay type: in vivo, human (adult allogeneic HSCT recipients)
Settings: for Subjects with Hemoglobin <6.5 g/dL / Subjects with Hemoglobin <8-6.5 g/dL / Subjects with Hemoglobin <10-8 g/dL / Subjects with Hemoglobin <LLN-10 g/dL / Subjects with Neutrophils <0.5 GI/L / Subjects with Neutrophils <1.0-0.5 GI/L / Subjects with Neutrophils <1.5-1 GI/L / Subjects with Neutrophils <LLN-1.5 GI/L / Subjects with Platelets <25 GI/L / Subjects with Platelets <50-25 GI/L / Subjects with Platelets <75-50 GI/L / Subjects with Platelets <LLN-75 GI/L / Subjects with Serum Creatinine >1 × ULN-[…] ULN / Subjects with Serum Creatinine >3 × ULN-6 × ULN / Subjects with Serum Creatinine >6 × ULN / Subjects with Serum Creatinine >[…] ULN-3 × ULN / Subjects with WBC <1 GI/L / Subjects with WBC <2-1 GI/L / Subjects with WBC <3-2 GI/L / Subjects with WBC <LLN-3 GI/L: any time during therapy
Protocol: Clinical Studies of HDP-CDV were performed and described in detail in the following Examples. For example, HDP-CDV-201 is a placebo-controlled, dose-escalating trial in HSCT CMV (R+) recipients, evaluating the ability of HDP-CDV to prevent or control CMV infection was carried out. Five cohorts were established in which participants or subjects received either placebo or the HDP-CDV orally, in doses ranging from 40 mg weekly (QW) to 200 mg twice weekly (BIW). Subjects who were post-HSCT were enrolled at the time of engraftment and randomized to HDP-CDV or placebo (3 to 1 ratio) and received blinded therapy until approximately 100 day post-transplantation. HDP-CDV doses were 40 mg QW, 100 mg QW, 200 mg QW, 200 mg BIW and 100 mg BIW. Escalation to the next dose was decided by the data monitoring committee after review of the safety data from the previous Cohort. Subjects who developed CMV disease or CMV infection requiring pre-emptive therapy with local standard of care were discontinued from blinded therapy and followed for 4 weeks. Subjects who completed treatment with blinded therapy were followed for 8 weeks post-therapy.
Data from Study HDP-CDV-201 also provided characterization of the safety and tolerability profile of HDP-CDV when administered for the prevention or control of CMV infection in high risk (R^+) post-HSCT adult subjects.
The Safety population (SAFETY) included all randomized subjects who took at least one dose of study treatment. This population was used to summarize safety outcomes based on the treatment actually received, in cases where a subject was treated contrary to the randomization schedule.
The safety and tolerability profile of HDP-CDV, including subject demographics and Baseline characteristics; the AE profile; and laboratory abnormalities of interest were analyzed in the cohorts followed in this investigation.
Subjects completing the treatment period received a full course of study medication; those completing the entire study attended visits through 8 weeks of follow up. Subjects who discontinued treatment may have done so for protocol specified reasons (e.g. development of clinically significant CMV infection requiring preemptive treatment with excluded anti-CMV medications) or for other reasons (e.g., withdrawal, adverse events, loss to follow-up). The disposition of subjects in Study HDP-CDV-201 during the double-blind, placebo-controlled treatment period (through Week 11) is listed by dosing Cohort in TABLE 23.
Adverse events were examined by severity to ensure that all safety signals were identified in this study population. Because of the frequency of events in HSCT recipients, particular attention was given to evaluation of Grade 3 […], 4 (severe), and 5 (fatal) adverse events.
Only those preferred terms for which at least one Grade 3 or higher event was experienced in any treatment group are listed. Cytomegalovirus-related AEs are excluded from this analysis.
HDP-CDV is a lipid conjugate of CDV. Because CDV is known to have adverse effects on renal function and bone marrow, decreased GFR and persistent neutropenia were identified as AEs of special interest. Key renal and hematological (TABLE 30) laboratory parameters were measured and listed below by Study HDP-CDV-201 treatment groups. TABLE 30 includes abnormal levels of serum creatinine, neutrophils, platelets, WBCs, and hemoglobin and includes data at Screening and during the treatment period.
A common metric for unit based dosing of medications is by weight (mg/kg). When the distribution of weights was examined for all subjects participating in the study, the median was 78 kg and the lower 25th percentile weight was approximately 65 kg, which translates to a cut-off of ˜3 mg/kg for a 200 mg total weekly dose. Based upon this approach, a cut-off of 3 mg/kg was used to assess the frequency of diarrhea and associated GI AEs reported for the subjects in Cohorts 3 or 4a (TABLE 40).

[1] = Cohort 4A, 100 mg BIW, through Week 11

## CCCCCCCCCCCCCCCCOCCCOP(=O)(O)COC(CO)Cn1ccc(N)nc1=O (stereo not drawn) [HDP-CDV]
Cohort 4A, 100 mg BIW, N = 50
  TEAE Cytomegalovirus viremia: 6 (12.0%) n (%)
  TEAE Decreased appetite: 9 (18.0%) n (%)
  TEAE Diarrhoea: 26 (52.0%) n (%)
  TEAE Dysgeusia: 4 (8.0%) n (%)
  TEAE Fatigue: 9 (18.0%) n (%)
  TEAE GI Reflux Disease: 0 n (%)
  TEAE Gamma-glutamyltransferase increased: 4 (8.0%) n (%)
  TEAE Generalized oedema: 1 (2.0%) n (%)
  TEAE Hyperbilirubinaemia: 3 (6.0%) n (%)
  TEAE Hyperglycaemia: 9 (18.0%) n (%)
  TEAE Hyperkalemia: 3 (6.0%) n (%)
  TEAE Hypocalcaemia: 2 (4.0%) n (%)
  TEAE Hypokalaemia: 8 (16.0%) n (%)
  TEAE Hyponatraemia: 1 (2.0%) n (%)
  TEAE Increased leukocytosis: 2 (4.0%) n (%)
  TEAE Insomnia: 9 (18.0%) n (%)
  TEAE Liver function test abnormal: 2 (4.0%) n (%)
  TEAE Malnutrition: 1 (2.0%) n (%)
  TEAE Nausea: 17 (34.0%) n (%)
  TEAE Neutropenia: 10 (20.0%) n (%)
  TEAE Oedema peripheral: 8 (16.0%) n (%)
  TEAE Oral Candidiasis: 6 (12.0%) n (%)
  TEAE Pneumonia: 5 (10.0%) n (%)
  TEAE Pyrexia: 10 (20.0%) n (%)
  TEAE Recurrent flatulence: 3 (6.0%) n (%)
  TEAE Renal Failure: 5 (10.0%) n (%)
  TEAE Staphylococcal Bacteremia: 6 (12.0%) n (%)
  TEAE Thrombocytopenia: 7 (14.0%) n (%)
  TEAE Tremor: 1 (2.0%) n (%)
  TEAE Vomiting: 22 (44.0%) n (%)
  Vomiting leading to study drug withdrawal: 1 (2.0%)
Cohort 4A, 100 mg BIW, N = 50, entire study duration
  All AEs, Grade 5 (deaths): 5 (10.0%)
[1]
  Subjects completed treatment: 30 (60.0%) n (%)
  Subjects who permanently discontinued treatment: 20 (40.0%) n (%)
Cohort 4A, >3.0 mg/kg/wk
  Abnormal ALT >3-5x ULN, Any Time Between Week 2 and Week 10, subjects: 4 (40.0%)
  Abnormal ALT >3-5x ULN, Screening, subjects: 0
  Abnormal ALT >5-10x ULN, Any Time Between Week 2 and Week 10, subjects: 1 (10.0%)
  Abnormal ALT >5-10x ULN, Screening, subjects: 0
  Abnormal ALT >10-20x ULN, Any Time Between Week 2 and Week 10, subjects: 0
  Abnormal ALT >10-20x ULN, Screening, subjects: 0
  Abnormal ALT >20x ULN, Any Time Between Week 2 and Week 10, subjects: 1 (10.0%)
  Abnormal ALT >20x ULN, Screening, subjects: 0
Cohort 4A, ≦3.0 mg/kg/wk
  Abnormal ALT >3-5x ULN, Any Time Between Week 2 and Week 10, subjects: 6 (15.0%)
  Abnormal ALT >3-5x ULN, Screening, subjects: 1 (2.8%)
  Abnormal ALT >5-10x ULN, Any Time Between Week 2 and Week 10, subjects: 3 (7.5%)
  Abnormal ALT >5-10x ULN, Screening, subjects: 1 (2.8%)
  Abnormal ALT >10-20x ULN, Any Time Between Week 2 and Week 10, subjects: 1 (2.5%)
  Abnormal ALT >10-20x ULN, Screening, subjects: 1 (2.8%)
  Abnormal ALT >20x ULN, Any Time Between Week 2 and Week 10, subjects: 0
  Abnormal ALT >20x ULN, Screening, subjects: 0
Cohort 4a
  Grade of hepatobiliary AE cholecystitis, subject 4058: 3
  Grade of hepatobiliary AE hyperbilirubinemia, subject 4080: 1
  Grade of hepatobiliary AE hyperbilirubinemia, subject 4090: 2
  Grade of hepatobiliary AE worsening hyperbilirubinemia, subject 4109: 1
  Outcome of hepatobiliary AE cholecystitis, subject 4058: recovered/resolved
  Outcome of hepatobiliary AE hyperbilirubinemia, subject 4080: not recovered/not
  Outcome of hepatobiliary AE hyperbilirubinemia, subject 4090: recovered/resolved
  Outcome of hepatobiliary AE worsening hyperbilirubinemia, subject 4109: not recovered/not
  Relationship of hepatobiliary AE cholecystitis, subject 4058: not related
  Relationship of hepatobiliary AE hyperbilirubinemia, subject 4080: not related
  Relationship of hepatobiliary AE hyperbilirubinemia, subject 4090: possibly related
  Relationship of hepatobiliary AE worsening hyperbilirubinemia, subject 4109: not related
Cohort 4a (100 mg BIW)
  frequency of SAEs involving the gastrointestinal tract: 42%
Weeks 2 to 4 of dosing, doses of 200 mg per week or higher
  typical ALT increases relative to Baseline: 2-4 times Baseline
After introduction of the safety monitoring and management plan
  subjects who discontinued study drug because of GI AEs: ≤ 10%
Any dose
  Grade 3 or 4 increases in creatinine: no Grade 3 or 4 increases in creatinine
Any dose other than 200 mg BIW
  subjects who discontinued study drug due to GI AEs: less than 10%
40 mg QW
  Subjects with Hemoglobin <6.5 g/dL: 0
  Subjects with Hemoglobin <8-6.5 g/dL: 1 (4.3%)
  Subjects with Hemoglobin <10-8 g/dL: 11 (47.8%)
  Subjects with Hemoglobin <LLN-10 g/dL: 10 (43.5%)
  Subjects with Neutrophils <0.5 GI/L: 0
  Subjects with Neutrophils <1.0-0.5 GI/L: 2 (8.7%)
  Subjects with Neutrophils <1.5-1 GI/L: 5 (21.7%)
  Subjects with Neutrophils <LLN-1.5 GI/L: 4 (17.4%)
  Subjects with Platelets <25 GI/L: 4 (17.4%)
  Subjects with Platelets <50-25 GI/L: 9 (39.1%)
  Subjects with Platelets <75-50 GI/L: 4 (17.4%)
  Subjects with Platelets <LLN-75 GI/L: 6 (26.1%)
  Subjects with Serum Creatinine >1 × ULN-[…] ULN: 8 (34.8%)
  Subjects with Serum Creatinine >3 × ULN-6 × ULN: 0
  Subjects with Serum Creatinine >6 × ULN: 0
  Subjects with Serum Creatinine >[…] ULN-3 × ULN: 2 (8.7%)
  Subjects with WBC <1 GI/L: 0
  Subjects with WBC <2-1 GI/L: 5 (21.7%)
  Subjects with WBC <3-2 GI/L: 6 (26.1%)
  Subjects with WBC <LLN-3 GI/L: 5 (21.7%)
100 mg BIW
  Subjects with Hemoglobin <6.5 g/dL: 1 (2.0%)
  Subjects with Hemoglobin <8-6.5 g/dL: 4 (8.0%)
  Subjects with Hemoglobin <10-8 g/dL: 27 (54.0%)
  Subjects with Hemoglobin <LLN-10 g/dL: 17 (34.0%)
  Subjects with Neutrophils <0.5 GI/L: 3 (6.0%)
  Subjects with Neutrophils <1.0-0.5 GI/L: 10 (20.0%)
  Subjects with Neutrophils <1.5-1 GI/L: 10 (20.0%)
  Subjects with Neutrophils <LLN-1.5 GI/L: 5 (10.0%)
  Subjects with Platelets <25 GI/L: 6 (12.0%)
  Subjects with Platelets <50-25 GI/L: 7 (14.0%)
  Subjects with Platelets <75-50 GI/L: 10 (20.0%)
  Subjects with Platelets <LLN-75 GI/L: 21 (42.0%)
  Subjects with Serum Creatinine >1 × ULN-[…] ULN: 16 (32.0%)
  Subjects with Serum Creatinine >3 × ULN-6 × ULN: 0
  Subjects with Serum Creatinine >6 × ULN: 0
  Subjects with Serum Creatinine >[…] ULN-3 × ULN: 10 (20.0%)
  Subjects with WBC <1 GI/L: 4 (8.0%)
  Subjects with WBC <2-1 GI/L: 8 (16.0%)
  Subjects with WBC <3-2 GI/L: 12 (24.0%)
  Subjects with WBC <LLN-3 GI/L: 11 (22.0%)
100 mg QW
  Subjects with Hemoglobin <6.5 g/dL: 1 (3.7%)
  Subjects with Hemoglobin <8-6.5 g/dL: 1 (3.7%)
  Subjects with Hemoglobin <10-8 g/dL: 12 (44.4%)
  Subjects with Hemoglobin <LLN-10 g/dL: 12 (44.4%)
